From patent US20240417395A1, “DUAL ANTAGONIST AND USE THEREOF” (NICOYA THERAPEUTICS (SHANGHAI) CO., LTD, priority 2021, published 2024)
Where two headings read alike, the source gives them in different places.

Assays:
[1] = target: ETa (Homo sapiens (Human), UniProt P25101); assay: Calcium flux assay on ETa cell line; assay type: cell-based; conditions: ETa/HEK293, calcium flux, endothelin-1 agonist
Method: Test materials: a) cell line: ETa/HEK293; b) vehicles: DMEM, Invitrogen (Cat #11960); Geneticin, Invitrogen (Cat #10131); c) reagent: Fluo-4 Direct, (Invitrogen, Cat #F10471); d) instruments: 384 well Poly-D-Lysine protein coating plate, Greiner #781946; Vi-cell XR Cell Viability Analyzer, Beckman Coulter; Incubator, Thermo.
For the employed agonist endothelin factor (endothelin-1, ET-1) master plate: the agonist was diluted from 50 μM to 15 μM with the test buffer solution.
For antagonist (BQ123, Am J Physiol. 1994 April; 266 (4 Pt 2): H1327-31.) plates and the compound plates: the antagonist and the tested compounds were diluted with DMSO at a gradient ratio of 1:4 to obtain 10 concentration points. Afterwards, 900 nL of each compound solution was transferred to the master plate and 30 μL of the test buffer solution was added. • a) The cell line was removed from the incubator, and 20 μL of 2X Fluo-4 Direct™ buffer solution was added gently by a pipette to a 384-well cell culture plate. • b) The cell plate was incubated at 37° C. for 50 min in the environment of 5% CO2, and then incubated at room temperature for 10 min. • c) The cell plate was removed from the incubator and placed in FLIPR. The compound plates and the tip box were placed in FLIPR. • d) Regarding the EC80 plate: • 1) Operations were conducted on […]. • 2) 10 μL of compound solution was transferred from the EC80 master plate to the cell plate. • 3) Fluorescence signals were read. • 4) The read signals were counted, and the EC80 value of each cell line was calculated using FLIPR. • 5) For the concentration of the compound plate, a solution having a concentration 6 times that of the reference agonist EC80 was formulated. • e) Regarding the compound plate: • 1) Operations were conducted on […]. • 2) 10 μL of compound was transferred to the cell plate. • 3) Fluorescence signals were read. • 4) 10 μL of solution having a concentration 6 times that of the reference agonist EC80 was transferred to the cell plate. • 5) Fluorescence signals were read. • f) Data analysis by Prism

[2] = target: CYP2C9 (Homo sapiens (Human), UniProt P11712); assay: Inhibition of cytochrome P450 isozyme CYP2C9; assay type: in vitro ADME; conditions: for IC50: recombinant enzyme
CYP2C9, sequence (P11712 whole entry): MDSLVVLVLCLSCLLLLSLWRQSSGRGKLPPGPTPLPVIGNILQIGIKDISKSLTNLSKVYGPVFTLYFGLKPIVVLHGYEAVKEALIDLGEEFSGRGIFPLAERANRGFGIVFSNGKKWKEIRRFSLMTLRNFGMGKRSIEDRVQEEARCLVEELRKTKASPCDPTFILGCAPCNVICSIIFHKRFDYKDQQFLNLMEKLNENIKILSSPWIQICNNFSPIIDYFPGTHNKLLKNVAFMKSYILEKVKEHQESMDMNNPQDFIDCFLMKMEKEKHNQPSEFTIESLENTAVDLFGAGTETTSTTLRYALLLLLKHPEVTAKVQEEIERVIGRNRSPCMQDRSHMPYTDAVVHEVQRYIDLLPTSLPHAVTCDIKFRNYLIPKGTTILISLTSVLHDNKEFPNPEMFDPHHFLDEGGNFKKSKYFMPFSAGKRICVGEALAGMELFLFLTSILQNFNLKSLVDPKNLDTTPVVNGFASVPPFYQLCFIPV
Method: (§1) A total of six specific probe substrates of six isozymes of CYPs, i.e., α-Naphthoflavone (CYP1A2), Sulphaphenazole (CYP2C9), Ticlopidine (CYP2C19), Quinidine (CYP2D6), Ketoconazole (CYP3A4), and Montelukast (CYP2C8) were co-incubated with recombinant hepatic drug enzymes CYP1A2, CYP2C9, CYP2C19, CYP2D6, CYP3A4, and CYP2C8 and test compounds, respectively. Nicotinamide adenine dinucleotide phosphate (NADP+), D-glucose-6-phosphate (G6P) and glucose-6-phosphate dehydrogenase (G6DHP) were added to start the reaction. At the end of the reaction, the corresponding half maximal inhibitory concentrations (IC50) were calculated by the fluorescence detection method (Ex490 nm/Em520 nm).

[3] = target: CYP2C19 (Homo sapiens (Human), UniProt P33261); assay: Inhibition of cytochrome P450 isozyme CYP2C19; assay type: in vitro ADME; conditions: for IC50: recombinant enzyme
CYP2C19, sequence (P33261 whole entry): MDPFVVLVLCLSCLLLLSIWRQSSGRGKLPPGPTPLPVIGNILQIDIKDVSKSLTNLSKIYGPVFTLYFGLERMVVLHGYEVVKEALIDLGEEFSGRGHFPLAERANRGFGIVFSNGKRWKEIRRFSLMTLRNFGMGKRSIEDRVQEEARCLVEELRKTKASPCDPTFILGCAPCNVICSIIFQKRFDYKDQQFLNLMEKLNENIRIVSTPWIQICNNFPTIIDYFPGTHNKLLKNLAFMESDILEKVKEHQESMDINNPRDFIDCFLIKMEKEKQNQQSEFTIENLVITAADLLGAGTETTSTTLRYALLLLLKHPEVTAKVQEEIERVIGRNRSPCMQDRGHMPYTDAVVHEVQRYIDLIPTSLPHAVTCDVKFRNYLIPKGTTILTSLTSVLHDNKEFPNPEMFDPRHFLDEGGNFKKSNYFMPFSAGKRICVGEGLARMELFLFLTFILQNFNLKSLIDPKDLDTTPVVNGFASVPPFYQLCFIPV
Method: as §1

[4] = target: CYP2D6 (Homo sapiens (Human), UniProt P10635); assay: Inhibition of cytochrome P450 isozyme CYP2D6; assay type: in vitro ADME; conditions: for IC50: recombinant enzyme
CYP2D6, sequence (P10635 whole entry): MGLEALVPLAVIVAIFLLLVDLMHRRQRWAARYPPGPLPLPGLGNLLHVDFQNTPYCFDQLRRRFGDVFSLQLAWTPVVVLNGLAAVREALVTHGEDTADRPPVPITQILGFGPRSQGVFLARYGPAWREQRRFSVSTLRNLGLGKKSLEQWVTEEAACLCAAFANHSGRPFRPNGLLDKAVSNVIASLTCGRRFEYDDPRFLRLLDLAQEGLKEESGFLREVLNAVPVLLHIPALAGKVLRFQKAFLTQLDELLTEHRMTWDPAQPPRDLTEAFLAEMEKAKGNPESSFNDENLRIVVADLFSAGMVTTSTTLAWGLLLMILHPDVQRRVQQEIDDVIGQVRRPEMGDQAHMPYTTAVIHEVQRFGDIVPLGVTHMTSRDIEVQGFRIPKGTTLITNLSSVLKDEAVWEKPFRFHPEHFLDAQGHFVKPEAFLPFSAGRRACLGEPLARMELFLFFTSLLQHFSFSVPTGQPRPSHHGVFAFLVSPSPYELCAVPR
Method: as §1

[5] = target: CYP3A4 (Homo sapiens (Human), UniProt P08684); assay: Inhibition of cytochrome P450 isozyme CYP3A4; assay type: in vitro ADME; conditions: for IC50: recombinant enzyme
CYP3A4, sequence (P08684 whole entry): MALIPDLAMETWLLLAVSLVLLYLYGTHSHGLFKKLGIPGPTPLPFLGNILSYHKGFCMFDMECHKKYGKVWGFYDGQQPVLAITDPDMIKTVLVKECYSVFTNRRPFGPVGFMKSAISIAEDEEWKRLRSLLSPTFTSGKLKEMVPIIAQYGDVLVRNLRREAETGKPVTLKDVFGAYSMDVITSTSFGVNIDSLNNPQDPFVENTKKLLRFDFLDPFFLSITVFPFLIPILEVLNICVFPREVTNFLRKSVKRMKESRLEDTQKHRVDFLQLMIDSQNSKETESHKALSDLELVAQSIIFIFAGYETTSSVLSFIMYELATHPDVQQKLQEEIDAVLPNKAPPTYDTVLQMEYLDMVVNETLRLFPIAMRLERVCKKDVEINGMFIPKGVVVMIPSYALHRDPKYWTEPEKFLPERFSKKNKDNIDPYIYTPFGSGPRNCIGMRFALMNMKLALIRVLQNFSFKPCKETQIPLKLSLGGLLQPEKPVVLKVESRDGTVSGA
Method: as §1

[6] = target: CYP2C8 (Homo sapiens (Human), UniProt P10632); assay: Inhibition of cytochrome P450 isozyme CYP2C8; assay type: in vitro ADME; conditions: for IC50: recombinant enzyme
CYP2C8, sequence (P10632 whole entry): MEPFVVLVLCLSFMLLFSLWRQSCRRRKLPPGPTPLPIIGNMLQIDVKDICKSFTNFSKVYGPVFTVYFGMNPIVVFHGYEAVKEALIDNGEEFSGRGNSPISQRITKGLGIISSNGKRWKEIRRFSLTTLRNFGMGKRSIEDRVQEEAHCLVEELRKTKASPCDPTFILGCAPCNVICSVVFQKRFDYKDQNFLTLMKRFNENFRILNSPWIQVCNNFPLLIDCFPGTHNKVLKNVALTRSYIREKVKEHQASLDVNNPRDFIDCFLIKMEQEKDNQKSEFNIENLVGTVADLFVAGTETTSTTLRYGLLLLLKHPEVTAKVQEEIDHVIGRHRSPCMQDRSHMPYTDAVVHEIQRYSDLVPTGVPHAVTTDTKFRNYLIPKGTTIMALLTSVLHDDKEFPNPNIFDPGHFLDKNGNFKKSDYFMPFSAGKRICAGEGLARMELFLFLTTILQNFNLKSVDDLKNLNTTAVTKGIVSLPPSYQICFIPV
Method: as §1

[7] = read-out: IC50 activity against ETa (class)
[8] = fluorescence detection, read-out: IC50 CYP2C9
[9] = fluorescence detection, read-out: IC50 CYP2C19
[10] = fluorescence detection, read-out: IC50 CYP2D6
[11] = fluorescence detection, read-out: IC50 CYP3A4
[12] = fluorescence detection, read-out: IC50 CYP2C8

ETa, sequence (P25101 21-427): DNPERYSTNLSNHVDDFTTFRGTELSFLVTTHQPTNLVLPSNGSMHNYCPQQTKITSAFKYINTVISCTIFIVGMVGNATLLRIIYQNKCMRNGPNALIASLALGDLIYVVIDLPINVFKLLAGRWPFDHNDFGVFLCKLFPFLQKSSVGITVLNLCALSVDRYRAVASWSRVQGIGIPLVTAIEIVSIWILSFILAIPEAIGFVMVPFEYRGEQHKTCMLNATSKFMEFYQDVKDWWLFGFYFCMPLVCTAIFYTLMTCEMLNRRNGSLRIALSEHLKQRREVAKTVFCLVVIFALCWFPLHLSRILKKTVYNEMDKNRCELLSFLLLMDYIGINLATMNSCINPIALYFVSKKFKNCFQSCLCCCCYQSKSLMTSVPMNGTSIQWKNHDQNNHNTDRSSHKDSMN

SMILES | IC50 [1, 7] [µM] | IC50 ([1]; read-out: IC50 against ETa) [µM] | risk of inhibiting CYP2C9 activity (conclusion in words) ([2]; conclusion to Table 4) | IC50 [2, 8] [µM] | risk of inhibiting CYP2C19 activity (conclusion in words) ([3]; conclusion to Table 4) | IC50 [3, 9] [µM] | risk of inhibiting CYP2D6 activity (conclusion in words) ([4]; conclusion to Table 4) | IC50 [4, 10] [µM] | risk of inhibiting CYP3A4 activity (conclusion in words) ([5]; conclusion to Table 4) | IC50 [5, 11] [µM] | risk of inhibiting CYP2C8 activity (conclusion in words) ([6]; conclusion to Table 4) | IC50 [6, 12] [µM] | also measured
CCCCC1=N[C@@]2(CC3C[C@H]3C2)C(=O)N1Cc1ccc(-c2ccccc2S(=O)(=O)Nc2noc(C)c2Cl)c(COCC)c1 (some centres unmarked) [Example 7] | 0.01 to 0.1 | 0.0243 | no risk of inhibiting | > 10 | no risk of inhibiting | > 10 | no risk of inhibiting | > 10 | no risk of inhibiting | > 10 | no risk of inhibiting | > 10 | 
CCCCC1=NC2(CCCC2)C(=O)N1Cc1ccc(-c2ccccc2S(=O)(=O)Nc2noc(C)c2C)c(COCC)c1 [Sparsentan, reference compound] |  | 0.0808 | no risk of inhibiting | > 10 | no risk of inhibiting | > 10 | no risk of inhibiting | > 10 | had an inhibitory effect | 1 to 10 | had an inhibitory effect | 1 to 10 | 
CCCCC1=N[C@@]2(CC3C[C@H]3C2)C(=O)N1Cc1ccc(-c2ccccc2S(=O)(=O)Nc2noc(C)c2C)c(COCC)c1 (some centres unmarked) [Example 3] | 0.01 to 0.1 | 0.0105 |  |  |  |  |  |  |  |  |  |  | risk of inhibiting CYP2C9 activity (conclusion in words) [2]: no risk of inhibiting; IC50 [2]: > 10 µM; risk of inhibiting CYP2C19 activity (conclusion in words) [3]: no risk of inhibiting; IC50 [3]: > 10 µM; risk of inhibiting CYP2D6 activity (conclusion in words) [4]: no risk of inhibiting; IC50 [4]: > 10 µM; risk of inhibiting CYP3A4 activity (conclusion in words) [5]: had an inhibitory effect; IC50 [5]: 1 to 10 µM; risk of inhibiting CYP2C8 activity (conclusion in words) [6]: no risk of inhibiting; IC50 [6]: > 10 µM
